# From patent US20080009418A1, “Selective Inhibitors” (Alchemia LTD., priority 2004, published 2008)
# Experiments:
# Human δ-opioid (DOP) = target: T1, Human δ-opioid (DOP) (Homo sapiens, UniProt P41143); test: Radioligand binding, human δ-opioid (DOP) membranes, FlashPlate, [3H]-Bremazocine; settings: compound at 10 μM, [3H]-Bremazocine; for A1: inhibition of radioligand binding: human DOP membranes
# T1 construct: purchased Perkin Elmer Biosignal
# Procedure, shortened: (§1)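 Cloned human receptor membranes were coated onto FlashPlate wells and incubated with radioligand and compound (added from a 0.5 mM DMSO daughter plate) for 1 hour at room temperature in the dark. Scintillation counting gave percent inhibition, with DMSO defining total and reference ligand defining non-specific binding.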
# Human κ-Opioid (KOP) = target: T2, Human κ-Opioid (KOP) (Homo sapiens, UniProt P41145); test: Radioligand binding, human κ-opioid (KOP) membranes, filtration, [3H]-Diprenorphine; settings: compound at 10 μM, [3H]-Diprenorphine; for A2: inhibition of radioligand binding: human KOP membranes
# T2 construct: purchased Perkin Elmer Biosignal
# Procedure, shortened: (§2)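 Membranes from cloned human receptors were incubated with compound and radioligand for 1 hour at room temperature. Bound ligand was collected on 0.3% PEI-soaked filters, washed with cold 50 mM Tris-HCl pH 7.4, and counted by scintillation. Percent inhibition was computed against DMSO totals and reference-ligand nonspecific wells.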
# Human Melanocortin (MC3) = target: T3, Human Melanocortin (MC3) (Homo sapiens, UniProt P41968); test: Radioligand binding, human melanocortin MC3 membranes, FlashPlate, [125I]-NDP-αMSH; settings: compound at 10 μM, [125I]-NDP-αMSH; for A3: inhibition of radioligand binding: human MC3 membranes
# T3 construct: purchased Perkin Elmer Biosignal
# Procedure, shortened: as §1
# Human Melanocortin (MC4) = target: T4, Human Melanocortin (MC4) (Homo sapiens, UniProt P32245); test: Radioligand binding, human melanocortin MC4 membranes, FlashPlate, [125I]-NDP-αMSH; settings: compound at 10 μM, [125I]-NDP-αMSH; for A4: inhibition of radioligand binding: human MC4 membranes
# T4 construct: purchased Perkin Elmer Biosignal
# Procedure, shortened: as §1
# Human melanocortin (MC5) = target: T5, Human melanocortin (MC5) (Homo sapiens, UniProt P33032); test: Radioligand binding, human melanocortin MC5 membranes, FlashPlate, [125I]-NDP-αMSH; settings: compound at 10 μM, [125I]-NDP-αMSH; for A5: inhibition of radioligand binding: human MC5 membranes
# T5 construct: purchased Perkin Elmer Biosignal
# Procedure, shortened: as §1
# [1] = target: T6, Human melanin-concentrating hormone (MCH1) (Homo sapiens, UniProt Q99705); test: Radioligand binding, human melanin-concentrating hormone MCH1 membranes, FlashPlate, [125I]-S36057; settings: compound at 10 μM; for A6: inhibition of radioligand binding: [125I]-S36057, human MCH1 membranes
# T6 construct: purchased Perkin Elmer Biosignal
# Procedure, shortened: as §1
# Human μ-opioid (MOP) = target: T7, Human μ-opioid (MOP) (Homo sapiens, UniProt P35372); test: Radioligand binding, human μ-opioid (MOP) membranes, FlashPlate, [3H]-Naloxone; settings: compound at 10 μM, [3H]-Naloxone; for A7: inhibition of radioligand binding: human MOP membranes
# T7 construct: purchased Perkin Elmer Biosignal
# Procedure, shortened: as §1
# Human neurokinin (NK1) = target: T8, Human neurokinin (NK1) (Homo sapiens, UniProt P25103); test: Radioligand binding, human neurokinin NK1 membranes, filtration, [125I]-Substance P; settings: compound at 10 μM, [125I]-Substance P; for A8: inhibition of radioligand binding: human NK1 membranes
# T8 construct: purchased Perkin Elmer Biosignal
# Procedure, shortened: as §2
# [2] = target: T9, Human neuropeptide Y (NPY-Y1) (Homo sapiens, UniProt P25929); test: Radioligand binding, human neuropeptide Y NPY-Y1 membranes, FlashPlate, [125I]-PYY; settings: compound at 10 μM, [125I]-PYY; for A9: inhibition of radioligand binding: human NPY-Y1 membranes
# T9 construct: purchased Perkin Elmer Biosignal
# T9 sequence (P25929 1-384): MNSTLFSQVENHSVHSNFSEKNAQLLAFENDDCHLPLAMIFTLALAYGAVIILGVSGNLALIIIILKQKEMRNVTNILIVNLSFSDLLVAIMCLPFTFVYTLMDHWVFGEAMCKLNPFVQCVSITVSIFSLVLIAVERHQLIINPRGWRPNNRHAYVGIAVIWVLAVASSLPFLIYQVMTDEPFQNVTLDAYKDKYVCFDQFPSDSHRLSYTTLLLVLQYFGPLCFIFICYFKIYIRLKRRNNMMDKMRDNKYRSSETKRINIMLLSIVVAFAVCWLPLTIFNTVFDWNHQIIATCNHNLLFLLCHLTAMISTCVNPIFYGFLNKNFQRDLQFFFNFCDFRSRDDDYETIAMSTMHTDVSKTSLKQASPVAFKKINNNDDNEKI
# Procedure, shortened: as §1
# Human opioid (ORL1) = target: T10, Human opioid (ORL1) (Homo sapiens, UniProt P41146); test: Radioligand binding, human opioid ORL1 membranes, FlashPlate, [125I]-Nociceptin; settings: compound at 10 μM, [125I]-Nociceptin; for A10: inhibition of radioligand binding: human ORL1 membranes
# T10 construct: purchased Perkin Elmer Biosignal
# Procedure, shortened: as §1
# Mouse urotensin (mUR2) = target: T11, Mouse urotensin (mUR2) (Mus musculus, UniProt Q8VIH9); test: Radioligand binding, mouse urotensin mUR2 membranes, FlashPlate, [125I]-Urotensin II; settings: compound at 10 μM, [125I]-Urotensin II; for A11: inhibition of radioligand binding: mouse mUR2 membranes
# T11 construct: purchased Perkin Elmer Biosignal
# T11 sequence (Q8VIH9 1-385): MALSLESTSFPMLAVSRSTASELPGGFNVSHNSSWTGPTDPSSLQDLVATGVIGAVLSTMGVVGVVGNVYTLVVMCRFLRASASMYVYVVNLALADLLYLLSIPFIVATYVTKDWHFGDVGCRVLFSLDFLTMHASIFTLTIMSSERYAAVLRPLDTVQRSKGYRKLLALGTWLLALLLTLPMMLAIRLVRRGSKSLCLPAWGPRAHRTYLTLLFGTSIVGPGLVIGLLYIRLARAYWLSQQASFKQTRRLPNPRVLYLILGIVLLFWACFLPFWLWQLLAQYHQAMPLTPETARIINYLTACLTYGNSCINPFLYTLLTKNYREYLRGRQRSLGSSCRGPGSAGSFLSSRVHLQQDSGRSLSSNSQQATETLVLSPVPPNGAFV
# Procedure, shortened: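 Cloned mouse urotensin (mUR2) receptor membranes from Perkin Elmer Biosignal were immobilized in FlashPlate microplates using a proprietary coating. Each well got 19.5 μl buffer, then 0.5 μl of DMSO, reference ligand, or compound. Adding 5 μl of [125I]-Urotensin II, diluted to 5× final concentration in binding buffer, started binding. Plates were sealed with TopSeal-A and incubated 1 hour at room temperature in the dark. Wells were counted for 30 seconds each on a TopCount after a 60-second delay, and percentage inhibition was calculated.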
# T5 sequence (P33032 whole entry): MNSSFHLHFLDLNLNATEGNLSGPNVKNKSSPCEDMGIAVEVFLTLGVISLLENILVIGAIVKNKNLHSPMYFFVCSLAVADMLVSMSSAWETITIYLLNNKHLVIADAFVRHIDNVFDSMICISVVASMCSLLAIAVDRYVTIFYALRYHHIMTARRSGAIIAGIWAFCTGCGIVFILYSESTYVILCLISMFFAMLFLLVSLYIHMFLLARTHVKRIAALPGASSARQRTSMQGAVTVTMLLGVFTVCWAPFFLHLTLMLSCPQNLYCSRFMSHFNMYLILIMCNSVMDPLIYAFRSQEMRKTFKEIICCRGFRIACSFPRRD
# T1 sequence (P41143 whole entry): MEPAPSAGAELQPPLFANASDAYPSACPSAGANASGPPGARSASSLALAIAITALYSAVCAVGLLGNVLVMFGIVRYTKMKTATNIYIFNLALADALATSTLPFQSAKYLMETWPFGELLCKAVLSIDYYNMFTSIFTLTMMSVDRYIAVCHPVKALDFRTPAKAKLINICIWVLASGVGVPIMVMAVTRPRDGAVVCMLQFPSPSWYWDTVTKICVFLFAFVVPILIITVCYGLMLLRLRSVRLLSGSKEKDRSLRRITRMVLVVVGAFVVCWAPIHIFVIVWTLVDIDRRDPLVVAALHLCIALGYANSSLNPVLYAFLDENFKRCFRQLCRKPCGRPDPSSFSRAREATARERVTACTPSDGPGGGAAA
# T6 sequence (Q99705 whole entry): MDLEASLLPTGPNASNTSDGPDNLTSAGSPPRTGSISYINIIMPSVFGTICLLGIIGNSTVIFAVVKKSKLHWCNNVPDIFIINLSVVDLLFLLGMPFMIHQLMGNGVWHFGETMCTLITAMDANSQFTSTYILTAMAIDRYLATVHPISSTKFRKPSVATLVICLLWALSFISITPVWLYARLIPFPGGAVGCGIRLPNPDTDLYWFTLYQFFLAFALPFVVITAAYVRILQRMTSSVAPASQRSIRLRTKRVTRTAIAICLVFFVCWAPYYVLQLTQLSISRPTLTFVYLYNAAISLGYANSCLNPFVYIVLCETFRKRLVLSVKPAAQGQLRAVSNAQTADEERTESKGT
# T2 sequence (P41145 whole entry): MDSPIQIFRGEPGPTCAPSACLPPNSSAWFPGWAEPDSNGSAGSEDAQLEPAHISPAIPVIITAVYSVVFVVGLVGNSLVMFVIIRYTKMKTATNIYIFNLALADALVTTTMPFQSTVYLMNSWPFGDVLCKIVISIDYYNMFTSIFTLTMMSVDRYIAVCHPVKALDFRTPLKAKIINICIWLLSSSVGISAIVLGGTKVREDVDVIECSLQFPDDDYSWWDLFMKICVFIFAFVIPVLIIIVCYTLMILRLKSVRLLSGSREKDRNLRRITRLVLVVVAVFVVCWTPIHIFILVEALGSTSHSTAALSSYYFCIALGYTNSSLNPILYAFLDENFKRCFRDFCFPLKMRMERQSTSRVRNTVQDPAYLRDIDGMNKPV
# T8 sequence (P25103 whole entry): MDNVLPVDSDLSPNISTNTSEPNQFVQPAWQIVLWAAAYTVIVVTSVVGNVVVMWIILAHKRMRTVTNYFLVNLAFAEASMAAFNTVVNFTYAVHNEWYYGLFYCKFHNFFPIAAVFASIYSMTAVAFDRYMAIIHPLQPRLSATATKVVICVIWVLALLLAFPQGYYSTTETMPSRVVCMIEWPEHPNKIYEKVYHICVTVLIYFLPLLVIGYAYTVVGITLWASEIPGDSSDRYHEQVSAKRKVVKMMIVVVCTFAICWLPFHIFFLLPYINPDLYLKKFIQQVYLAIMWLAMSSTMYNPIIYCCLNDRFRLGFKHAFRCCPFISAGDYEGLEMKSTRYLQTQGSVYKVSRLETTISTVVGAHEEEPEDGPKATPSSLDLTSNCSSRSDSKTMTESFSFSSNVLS
# T7 sequence (P35372 whole entry): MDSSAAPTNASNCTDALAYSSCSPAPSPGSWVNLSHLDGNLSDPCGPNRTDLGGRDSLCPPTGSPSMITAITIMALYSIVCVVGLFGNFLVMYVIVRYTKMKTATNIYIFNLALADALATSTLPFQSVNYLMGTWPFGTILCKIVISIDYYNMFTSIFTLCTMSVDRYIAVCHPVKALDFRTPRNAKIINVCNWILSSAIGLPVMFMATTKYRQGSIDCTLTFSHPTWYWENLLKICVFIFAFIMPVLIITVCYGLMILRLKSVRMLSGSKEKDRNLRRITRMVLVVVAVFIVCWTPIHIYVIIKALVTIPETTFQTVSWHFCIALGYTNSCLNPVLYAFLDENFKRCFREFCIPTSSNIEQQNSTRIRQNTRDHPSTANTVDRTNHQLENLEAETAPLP
# T3 sequence (P41968 whole entry): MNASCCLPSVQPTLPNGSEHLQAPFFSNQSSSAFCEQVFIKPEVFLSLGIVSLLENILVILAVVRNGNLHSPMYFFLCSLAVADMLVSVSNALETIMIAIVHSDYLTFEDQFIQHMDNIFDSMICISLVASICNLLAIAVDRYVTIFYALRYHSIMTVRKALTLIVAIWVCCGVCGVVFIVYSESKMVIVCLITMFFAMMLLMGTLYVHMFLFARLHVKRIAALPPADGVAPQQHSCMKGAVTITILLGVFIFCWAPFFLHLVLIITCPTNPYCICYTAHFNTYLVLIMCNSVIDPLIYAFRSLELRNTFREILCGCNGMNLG
# T4 sequence (P32245 whole entry): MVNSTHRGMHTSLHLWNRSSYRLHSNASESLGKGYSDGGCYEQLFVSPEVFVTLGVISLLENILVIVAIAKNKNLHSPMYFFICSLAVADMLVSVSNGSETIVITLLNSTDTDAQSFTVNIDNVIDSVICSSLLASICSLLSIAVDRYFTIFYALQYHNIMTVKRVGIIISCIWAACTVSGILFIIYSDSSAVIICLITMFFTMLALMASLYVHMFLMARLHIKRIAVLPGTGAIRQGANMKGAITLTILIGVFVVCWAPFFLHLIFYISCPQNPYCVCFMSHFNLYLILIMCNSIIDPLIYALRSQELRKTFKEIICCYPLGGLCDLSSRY
# T10 sequence (P41146 whole entry): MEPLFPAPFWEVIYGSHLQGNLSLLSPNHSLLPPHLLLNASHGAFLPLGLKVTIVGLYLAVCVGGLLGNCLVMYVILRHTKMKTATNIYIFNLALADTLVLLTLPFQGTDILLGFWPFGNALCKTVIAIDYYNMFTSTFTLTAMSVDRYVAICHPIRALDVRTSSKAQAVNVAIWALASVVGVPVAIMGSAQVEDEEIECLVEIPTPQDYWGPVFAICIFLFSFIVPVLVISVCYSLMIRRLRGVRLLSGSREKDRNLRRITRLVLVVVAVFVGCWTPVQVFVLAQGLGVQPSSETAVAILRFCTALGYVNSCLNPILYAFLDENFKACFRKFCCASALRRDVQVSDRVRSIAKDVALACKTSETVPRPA
SMILES,A1: inhibition of radioligand binding (Human δ-opioid (DOP)),A2: inhibition of radioligand binding (Human κ-Opioid (KOP)),A3: inhibition of radioligand binding (Human Melanocortin (MC3)),A4: inhibition of radioligand binding (Human Melanocortin (MC4)),A5: inhibition of radioligand binding (Human melanocortin (MC5)),A6: inhibition of radioligand binding [1],A7: inhibition of radioligand binding (Human μ-opioid (MOP)),A8: inhibition of radioligand binding (Human neurokinin (NK1)),A9: inhibition of radioligand binding [2],A10: inhibition of radioligand binding (Human opioid (ORL1)),A11: inhibition of radioligand binding (Mouse urotensin (mUR2)),also measured
CO[C@H]1[C@H](O)[C@@H](COCc2ccccc2)OC(OCc2ccc(Cl)cc2)[C@@H]1NC(=O)CCCNC(=N)N (stereo partly shown) [compound 104],–,–,–,–,–,–,–,–,–,–,–,"A1 radioligand binding, percentage inhibition (Human δ-opioid (DOP)): − (“−” indicates less than 50% inhibition at 10 μM); A2 radioligand binding, percentage inhibition (Human κ-Opioid (KOP)): − (“−” indicates less than 50% inhibition at 10 μM); A3 radioligand binding, percentage inhibition (Human Melanocortin (MC3)): − (“−” indicates less than 50% inhibition at 10 μM); A4 radioligand binding, percentage inhibition (Human Melanocortin (MC4)): + (“+” indicates greater than 50% inhibition at 10 μM); A5 radioligand binding, percentage inhibition (Human melanocortin (MC5)): + (“+” indicates greater than 50% inhibition at 10 μM); A6 radioligand binding, percentage inhibition ([1]; [125I]-S36057): − (“−” indicates less than 50% inhibition at 10 μM); A7 radioligand binding, percentage inhibition (Human μ-opioid (MOP)): + (“+” indicates greater than 50% inhibition at 10 μM); A8 radioligand binding, percentage inhibition (Human neurokinin (NK1)): + (“+” indicates greater than 50% inhibition at 10 μM); A9 radioligand binding, percentage inhibition [2]: − (“−” indicates less than 50% inhibition at 10 μM); A10 radioligand binding, percentage inhibition (Human opioid (ORL1)): − (“−” indicates less than 50% inhibition at 10 μM); A11 radioligand binding, percentage inhibition (Mouse urotensin (mUR2)): − (“−” indicates less than 50% inhibition at 10 μM)"
N=C(N)NCCC(=O)NC1C(OCc2ccc(Cl)cc2)OC(COCc2ccc3ccccc3c2)C(O)C1OCc1ccc(-c2ccccc2)cc1 (stereo not shown) [compound 432],− (“−” indicates less than 50% inhibition at 10 μM),− (“−” indicates less than 50% inhibition at 10 μM),+ (“+” indicates greater than 50% inhibition at 10 μM),+ (“+” indicates greater than 50% inhibition at 10 μM),+ (“+” indicates greater than 50% inhibition at 10 μM),+ (“+” indicates greater than 50% inhibition at 10 μM),− (“−” indicates less than 50% inhibition at 10 μM),+ (“+” indicates greater than 50% inhibition at 10 μM),− (“−” indicates less than 50% inhibition at 10 μM),− (“−” indicates less than 50% inhibition at 10 μM),− (“−” indicates less than 50% inhibition at 10 μM),–
"NCCC(=O)NC1C(OCc2ccc(Cl)cc2)OC(COCc2ccccc2)C(O)C1OCc1ccc2ccccc2c1 (single isomer, unassigned) [compound 480]",–,–,–,–,–,–,–,–,–,–,–,"A1: inhibition of radioligand binding, human δ-opioid (DOP) (Human δ-opioid (DOP)): − (“−” indicates less than 50% inhibition at 10 μM); A2: inhibition of radioligand binding, human κ-opioid (KOP) (Human κ-Opioid (KOP)): − (“−” indicates less than 50% inhibition at 10 μM); A3: inhibition of radioligand binding, human melanocortin (MC3) (Human Melanocortin (MC3)): − (“−” indicates less than 50% inhibition at 10 μM); A4: inhibition of radioligand binding, human melanocortin (MC4) (Human Melanocortin (MC4); 10 µM): + (“+” indicates greater than 50% inhibition at 10 μM); A5: inhibition of radioligand binding, human melanocortin (MC5) (Human melanocortin (MC5); 10 µM): + (“+” indicates greater than 50% inhibition at 10 μM); A6: inhibition of radioligand binding, human melanin-concentrating hormone (MCH1) ([1]; [125I]-S36057, 10 µM): + (“+” indicates greater than 50% inhibition at 10 μM); A7: inhibition of radioligand binding, human μ-opioid (MOP) (Human μ-opioid (MOP); 10 µM): + (“+” indicates greater than 50% inhibition at 10 μM); A8: inhibition of radioligand binding, human neurokinin (NK1) (Human neurokinin (NK1)): + (“+” indicates greater than 50% inhibition at 10 μM); A9: inhibition of radioligand binding, human neuropeptide Y (NPY-Y1) [2]: − (“−” indicates less than 50% inhibition at 10 μM); A10: inhibition of radioligand binding, human opioid (ORL1) (Human opioid (ORL1)): − (“−” indicates less than 50% inhibition at 10 μM); A11: inhibition of radioligand binding, mouse urotensin (mUR2) (Mouse urotensin (mUR2)): − (“−” indicates less than 50% inhibition at 10 μM)"
"NCCC(=O)NC1C(OCc2ccc3ccccc3c2)OC(COCc2ccc(Cl)cc2)C(O)C1OCc1ccccc1 (single isomer, unassigned) [compound 453]",− (“−” indicates less than 50% inhibition at 10 μM),− (“−” indicates less than 50% inhibition at 10 μM),–,+ (“+” indicates greater than 50% inhibition at 10 μM),+ (“+” indicates greater than 50% inhibition at 10 μM),–,− (“−” indicates less than 50% inhibition at 10 μM),+ (“+” indicates greater than 50% inhibition at 10 μM),− (“−” indicates less than 50% inhibition at 10 μM),–,− (“−” indicates less than 50% inhibition at 10 μM),A3: inhibition of radioligand binding (Human Melanocortin (MC3); 10 µM): + (“+” indicates greater than 50% inhibition at 10 μM); A6: inhibition of radioligand binding ([1]; 10 µM): + (“+” indicates greater than 50% inhibition at 10 μM); A10: inhibition of radioligand binding (Human opioid (ORL1); 10 µM): − (“−” indicates less than 50% inhibition at 10 μM)
N=C(N)NCC(=O)NC1C(OCc2ccc(Cl)cc2)OC(COCc2ccc3ccccc3c2)C(O)C1OCc1ccc(-c2ccccc2)cc1 (stereo not shown) [compound 423],− (“−” indicates less than 50% inhibition at 10 μM),− (“−” indicates less than 50% inhibition at 10 μM),+ (“+” indicates greater than 50% inhibition at 10 μM),+ (“+” indicates greater than 50% inhibition at 10 μM),+ (“+” indicates greater than 50% inhibition at 10 μM),− (“−” indicates less than 50% inhibition at 10 μM),− (“−” indicates less than 50% inhibition at 10 μM),+ (“+” indicates greater than 50% inhibition at 10 μM),− (“−” indicates less than 50% inhibition at 10 μM),+ (“+” indicates greater than 50% inhibition at 10 μM),− (“−” indicates less than 50% inhibition at 10 μM),–
